Measurements taken from patent publication US12653809B2, “Urea, amide, and substituted heteroaryl compounds for CBL-B inhibition” (Nurix Therapeutics, Inc., priority 2019, dated 2026).
Read-outs that look alike come from different tables or passages of the source.

Biological target: T1, Cbl-b (truncated variant, UniProt number Q13191) (Homo sapiens, UniProt Q13191)
T1 construct: made in house
Assay: Cbl-b activity assay (TR-FRET, interaction of Cbl-b with UbcH5B-Ub)
Format: biochemical
Text: As described in Biological Example 1A, a Cbl-b activity assay (Cbl-b inhibition assay) used to measure the IC50 values for Cbl-b inhibition uses a mixture comprising candidate compound, Cbl-b (truncated, with an Avitag, and biotinylated), a fluorescently-labeled E2 enzyme UbcH5B labelled with ubiquitin conjugated to BODIPY-fluorescein (UbcH5B-Ub), streptavidin-terbium, and assay buffer. In one embodiment, the Cbl-b activity assay (Cbl-b inhibition assay) used to measure IC50 for inhibition of Cbl-b uses the conditions described in Biological Example 1A with 12 nM Cbl-b. […] In another embodiment, the Cbl-b activity assay (Cbl-b inhibition assay) used to measure IC50 for inhibition of Cbl-b uses the conditions described in Biological Example 1B, with candidate compound, 0.125 nM Cbl-b (truncated, with an avitag, and biotinylated), fluorescently labelled inhibitor probe, and assay buffer. Displacement of the inhibitor probe indicates Cbl-b activity.
Candidate compounds isolated from screening assays were evaluated for their ability to bind and inhibit Cbl-b, an E3 ubiquitin-protein ligase.
The ability of candidate compounds to inhibit Cbl-b activity was measured by monitoring the interaction of Cbl-b with UbcH5B-Ub in the presence of the candidate compound. A truncated variant of Cbl-b (UniProt number Q13191; SEQ ID NO:1) containing an Avitag at its N-terminus was co-expressed with BirA biotin ligase and purified using a standard protocol (see Dou et al., Nature Structural and Molecular Biology 8: 982-987, 2013; Avidity LLC).
Fluorescently labeled UbcH5B-Ub was prepared by conjugating ubiquitin (Ub), labeled at its N-terminus with Bodipy-Fluorescein, to UbcH5B, an E2 enzyme, harboring a cysteine to lysine mutation at position 85. This mutation is similar to a mutation that was previously reported (see Dou et al., Nature Structural and Molecular Biology 8: 982-987, 2013). Cbl-b activity assays were performed in a 384-well plate at room temperature in a 10 μL reaction volume by pre-incubating 12 nM Cbl-b (final concentration) in an assay buffer containing 50 mM HEPES pH 7.0, 100 mM NaCl, 0.01% Triton X-100, 0.01% BSA, and 1 mM DTT in the presence of a candidate compound in 1% DMSO (final concentration, High Conditions) for one hour. After incubation in the presence of the candidate compound, the plate was incubated for an additional 1.5 hours in the presence of 60 nM Src kinase with 1 mM ATP and 5 mM MgCl2 (final concentrations). Alternatively, compounds were tested as described above with assay buffer containing 50 mM NaCl instead of 100 mM NaCl and 30 nM Src kinase instead of 60 nM Src kinase (Low Conditions). Src kinase was prepared as previously described (see Kobashigawa et al., Proc Natl Acad Sci USA, 108: 20579-20584, 2011). […] The plate was incubated for one hour. Following the one hour incubation, the plates were read for TR-FRET signal at 520/620 nm using Envision plate reader (Perkin Elmer). The presence of a FRET signal that indicated Cbl-b was not inhibited by the compound candidate. The absence of a FRET signal indicated Cbl-b was inhibited by the compound candidate and was therefore a Cbl-b inhibitor.
The resulting data for the Cbl-b activity assays were analyzed using standard methods to report the IC50 values of the tested compounds (Tables 3-4). The resulting data for the Cbl-b binding assay was solvent corrected and double-referenced prior to analysis. All data were globally fit to a steady-state affinity and kinetic binding model where applicable. Compounds were ranked into bins A through D as follows for IC50: A indicates <0.1 μM, B indicates 0.1 μM≤IC50<1 μM, C indicates 1 μM≤IC50<5 μM, and D indicates 5 μM≤IC50.

[1] = Biological Example 1A, low or high conditions not stated, read-out: IC50 values in the Cbl-b inhibition assay of Biological Example 1A
[2] = high conditions: 100 mM NaCl, 60 nM Src kinase, 12 nM Cbl-b, read-out: Cbl-b activity IC50
[3] = low conditions: 50 mM NaCl, 30 nM Src kinase, 12 nM Cbl-b, read-out: Cbl-b activity IC50

T1 sequence (Q13191 36-427): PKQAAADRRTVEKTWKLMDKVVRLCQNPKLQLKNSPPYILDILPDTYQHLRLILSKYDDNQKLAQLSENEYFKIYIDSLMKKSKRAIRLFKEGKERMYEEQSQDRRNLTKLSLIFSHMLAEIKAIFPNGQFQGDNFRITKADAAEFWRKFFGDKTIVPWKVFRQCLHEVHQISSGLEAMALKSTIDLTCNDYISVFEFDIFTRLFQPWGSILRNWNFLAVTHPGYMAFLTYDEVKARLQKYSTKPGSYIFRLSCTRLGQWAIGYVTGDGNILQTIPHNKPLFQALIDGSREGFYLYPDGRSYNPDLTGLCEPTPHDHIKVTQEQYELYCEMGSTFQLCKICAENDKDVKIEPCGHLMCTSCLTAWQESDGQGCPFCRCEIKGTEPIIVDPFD

| SMILES | IC50 [1] [nM] | IC50 [2] [nM] | IC50 [3] [nM] |
| --- | --- | --- | --- |
| C[C@H](Sc1nncn1C)c1cccc(-c2cc(-c3ccc(CO)cc3)no2)c1 [Example 64, (S)-(4-(5-(3-(1-(4-methyl-4H-1,2,4-triazol-3-ylthio)ethyl)phenyl)isoxazol-3-yl)phenyl)methanol] | 1000 to 5000 | 1000 to 5000 |  |
| C[C@H](Sc1nncn1C)c1cccc(NC(=O)N2CCOC(CC(F)(F)F)C2)c1 (stereo partly drawn) [Example 131, N-(3-((S)-1-((4-methyl-4H-1,2,4-triazol-3-yl)thio)ethyl)phenyl)-2-(2,2,2-trifluoroethyl)morpholine-4-carboxamide] |  | ≥ 5000 |  |
| CC(=O)N1CCN(C(=O)Nc2cccc([C@H](C)Sc3nncn3C)c2)CC1 [Example 162, (S)-4-acetyl-N-(3-(1-(4-methyl-4H-1,2,4-triazol-3-ylthio)ethyl)phenyl)piperazine-1-carboxamide] |  | ≥ 5000 |  |
| C[C@H](Sc1nncn1C)c1cccc(NC(=O)N2CCC(C(F)F)C2)c1 (stereo partly drawn) [Example 47, 3-(difluoromethyl)-N-(3-((S)-1-((4-methyl-4H-1,2,4-triazol-3-yl)thio)ethyl)phenyl)pyrrolidine-1-carboxamide] |  | ≥ 5000 |  |
| CC(Sc1nncn1C)c1cccc(C(=O)Nc2cccc(C(F)(F)F)n2)c1 (centres unmarked) [Example 1, 3-(1-((4-methyl-4H-1,2,4-triazol-3-yl)thio)ethyl)-N-(6-(trifluoromethyl)pyridin-2-yl)benzamide] | ≥ 5000 |  | ≥ 5000 |
| CC(Sc1nncn1C)c1cccc(C(=O)Nc2ccccn2)c1 (centres unmarked) [Example 34, 3-(1-((4-methyl-4H-1,2,4-triazol-3-yl)thio)ethyl)-N-(pyridin-2-yl)benzamide] |  |  | ≥ 5000 |
| C[C@H](Sc1nncn1C)c1cccc(-n2cc(-c3ccc(C#N)cc3)nn2)c1 [Example 89, (S)-4-(1-(3-(1-(4-methyl-4H-1,2,4-triazol-3-ylthio)ethyl)phenyl)-1H-1,2,3-triazol-4-yl)benzonitrile] | 1000 to 5000 | 1000 to 5000 |  |
| C[C@H](Sc1nncn1C)c1cccc(NC(=O)N2CC(C(=O)N3CCC(O)C3)C2)c1 (stereo partly drawn) [Example 153, 3-(3-hydroxypyrrolidine-1-carbonyl)-N-(3-((S)-1-((4-methyl-4H-1,2,4-triazol-3-yl)thio)ethyl)phenyl)azetidine-1-carboxamide] |  | ≥ 5000 |  |
| CC(C)C1CN(C(=O)Nc2cccc([C@H](C)Sc3nncn3C)c2)CCO1 (stereo partly drawn) [Example 51, 2-isopropyl-N-(3-((S)-1-((4-methyl-4H-1,2,4-triazol-3-yl)thio)ethyl)phenyl)morpholine-4-carboxamide] |  | ≥ 5000 |  |
| CCn1cc(CN(C)C(=O)Nc2cccc([C@H](C)Sc3nncn3C)c2)cn1 [Example 152, (S)-1-((1-ethyl-1H-pyrazol-4-yl)methyl)-1-methyl-3-(3-(1-((4-methyl-4H-1,2,4-triazol-3-yl)thio)ethyl)phenyl)urea] |  | ≥ 5000 |  |
| C[C@H](Sc1nncn1C)c1cccc(-n2cc(-c3cccc(C#N)c3)nn2)c1 [Example 98, (S)-3-(1-(3-(1-(4-methyl-4H-1,2,4-triazol-3-ylthio)ethyl)phenyl)-1H-1,2,3-triazol-4-yl)benzonitrile] | ≥ 5000 | ≥ 5000 |  |
| C[C@H](Sc1nncn1C)c1cccc(-c2cc(-c3ccc(C(=O)O)cc3)no2)c1 [Example 63, 4-(5-{3-[(1S)-1-[(4-methyl-4H-1,2,4-triazol-3-yl)sulfanyl]ethyl]phenyl}-1,2-oxazol-3-yl)benzoic acid] | ≥ 5000 | ≥ 5000 |  |
| C[C@H](Cc1nncn1C)c1ccnc(C(=O)Nc2cccc(C(F)(F)F)n2)c1 [Example 14, 4-[(2R)-1-(4-methyl-4H-1,2,4-triazol-3-yl)propan-2-yl]-N-[6-(trifluoromethyl)pyridin-2-yl]pyridine-2-carboxamide] | 100 to 1000 | 100 to 1000 |  |
| C[C@H](Sc1nncn1C)c1cccc(NC(=O)N2CCc3nocc3C2)c1 [Example 125, (S)—N-(3-(1-((4-methyl-4H-1,2,4-triazol-3-yl)thio)ethyl)phenyl)-6,7-dihydroisoxazolo[4,3-c]pyridine-5(4H)-carboxamide] |  | ≥ 5000 |  |
| COc1cccc(-c2cc(-c3cccc(C(C)Sc4nncn4C)c3)[nH]n2)c1 (centres unmarked) [Example 104, 3-((1-(3-(3-(3-methoxyphenyl)-1H-pyrazol-5-yl)phenyl)ethyl)thio)-4-methyl-4H-1,2,4-triazole] | 1000 to 5000 | 1000 to 5000 |  |
| C[C@H](Sc1nncn1C)c1cccc(-n2ncc(-c3cccc(C#N)c3)n2)c1 [Example 97, (S)-3-(2-(3-(1-(4-methyl-4H-1,2,4-triazol-3-ylthio)ethyl)phenyl)-2H-1,2,3-triazol-4-yl)benzonitrile] | 1000 to 5000 | 1000 to 5000 |  |

Now from value to molecule:

| IC50 [1] [nM] | IC50 [2] [nM] | IC50 [3] [nM] | SMILES |
| --- | --- | --- | --- |
|  | < 100 |  | Cn1cnnc1CC1(c2cccc(NC(=O)N3CC4(CCNCC4)c4cccnc43)c2)COC1 [Example 30, N-(3-(3-((4-methyl-4H-1,2,4-triazol-3-yl)methyl)oxetan-3-yl)phenyl)spiro[piperidine-4,3′-pyrrolo[2,3-b]pyridine]-1′(2′H)-carboxamide] |
|  | 100 to 1000 |  | C[C@H](Cc1nncn1C)c1cccc(NC(=O)N2CCOc3cc(Br)cnc32)c1 [Example 21, (R)-7-bromo-N-(3-(1-(4-methyl-4H-1,2,4-triazol-3-yl)propan-2-yl)phenyl)-2,3-dihydro-4H-pyrido[3,2-b][1,4]oxazine-4-carboxamide] |
|  | 100 to 1000 |  | C[C@H](Cc1nncn1C)c1cccc(-c2n[nH]c3c(N4CCC(O)CC4)cc(C(F)(F)F)nc23)c1 [Example 109, (R)-1-(3-(3-(1-(4-methyl-4H-1,2,4-triazol-3-yl)propan-2-yl)phenyl)-5-(trifluoromethyl)-1H-pyrazolo[4,3-b]pyridin-7-yl)piperidin-4-ol] |
|  | 100 to 1000 |  | C[C@H](Cc1nncn1C)c1cccc(-c2n[nH]c3c(N4CC[C@H](O)C4)cc(C(F)(F)F)nc23)c1 [Example 111, (S)-1-(3-(3-((R)-1-(4-methyl-4H-1,2,4-triazol-3-yl)propan-2-yl)phenyl)-5-(trifluoromethyl)-1H-pyrazolo[4,3-b]pyridin-7-yl)pyrrolidin-3-ol] |
| 100 to 1000 | 100 to 1000 |  | C[C@H](Sc1nncn1C)c1cccc(-n2ncc(-c3ccccc3)n2)c1 [Example 99, (S)-2-(3-(1-((4-methyl-4H-1,2,4-triazol-3-yl)thio)ethyl)phenyl)-4-phenyl-2H-1,2,3-triazole] |
| < 100 | < 100 |  | C[C@H](Cc1nncn1C)c1cccc(-c2n[nH]c3c(CN4CC[C@H](F)C4)cc(C(F)(F)F)nc23)c1 [Example 113, 3-[(2R)-2-[3-(7-[[(3S)-3-fluoropyrrolidin-1-yl]methyl]-5-(trifluoromethyl)-1H-pyrazolo[4,3-b]pyridin-3-yl)phenyl]propyl]-4-methyl-4H-1,2,4-triazole] |
| 100 to 1000 | 100 to 1000 |  | C[C@H](Sc1nncn1C)c1cccc(-n2ncc(-c3cccc(C(N)=O)c3)n2)c1 [Example 95, (S)-3-(2-(3-(1-(4-methyl-4H-1,2,4-triazol-3-ylthio)ethyl)phenyl)-2H-1,2,3-triazol-4-yl)benzamide] |
|  | < 100 |  | Cn1cnnc1C(F)(F)[C@](C)(F)c1cccc(NC(=O)N2CC3(CNC3)Oc3cccnc32)c1 [Example 28, (R)—N-(3-(1,1,2-trifluoro-1-(4-methyl-4H-1,2,4-triazol-3-yl)propan-2-yl)phenyl)spiro[azetidine-3,2′-pyrido[3,2-b][1,4]oxazine]-4′(3′H)-carboxamide] |
